Measured values reported in US20250049738A1, “METHOD OF TREATMENT AND SELECTION OF PATIENTS BENEFITING FROM AGOMELATINE BASED ON EEG MEASUREMENTS” (Alto Neuroscience, Inc., priority 2023, published 2025).

Tested on: patients with major depressive disorder
Test: Open-label trials of adjunctive agomelatine 25 mg at bedtime in MDD; baseline EEG models predicting change in MADRS
Assay type: in vivo, human
Settings: for d (Cohen's d, prediction of agomelatine outcome): REC

COc1ccc2cccc(CCNC(C)=O)c2c1 [agomelatine, N-[2-(7-methoxynaphthalen-1-yl)ethyl]acetamide]
prediction of agomelatine outcome by relative power (EEG machine learning model): not predictive
prediction of agomelatine outcome by aperiodic exponent (EEG machine learning model, significant at week 4): also predictive
Cohen's d effect size, predicted responders vs predicted non-responders, change in MADRS (EEG sample entropy machine learning model, cross-validation left-out data of training dataset, all weeks, FIG. 2A): > 0.4
Cohen's d, predicted agomelatine responders vs non-responders, observed change in MADRS (EEG sample entropy machine learning model, holdout dataset, weeks 4, 6 and 8, FIG. 2B): ≥ 0.4
implied agomelatine-placebo difference, d (EEG-predicted non-responders (sample entropy model), full sample): −0.06
implied agomelatine-placebo response, d (EEG-predicted responders (sample entropy model), week 8, full sample): 0.58
implied agomelatine-placebo difference, d (Pz low gamma sample entropy alone, high entropy patients, full sample): 0.51
implied agomelatine-placebo difference, d (Pz low gamma sample entropy alone, low entropy patients, full sample): 0.0
d (Cohen's d, prediction of agomelatine outcome) (Approximate Entropy, lower gamma, Week 1): 0.23
d (Cohen's d, prediction of agomelatine outcome) (Approximate Entropy, lower gamma, Week 2): 0.29
d (Cohen's d, prediction of agomelatine outcome) (Approximate Entropy, lower gamma, Week 4): 0.46
d (Cohen's d, prediction of agomelatine outcome) (Detrended Fluctuation Analysis, lower beta, Week 1): 0.49
d (Cohen's d, prediction of agomelatine outcome) (Detrended Fluctuation Analysis, lower beta, Week 2): 0.44
d (Cohen's d, prediction of agomelatine outcome) (Detrended Fluctuation Analysis, lower beta, Week 4): 0.41
d (Cohen's d, prediction of agomelatine outcome) (Detrended Fluctuation Analysis, upper beta, Week 1): 0.19
d (Cohen's d, prediction of agomelatine outcome) (Detrended Fluctuation Analysis, upper beta, Week 2): 0.20
d (Cohen's d, prediction of agomelatine outcome) (Detrended Fluctuation Analysis, upper beta, Week 4): 0.25
d (Cohen's d, prediction of agomelatine outcome) (Higuchi Fractal Dimension, lower beta, Week 1): 0.44
d (Cohen's d, prediction of agomelatine outcome) (Higuchi Fractal Dimension, lower beta, Week 2): 0.36
d (Cohen's d, prediction of agomelatine outcome) (Higuchi Fractal Dimension, lower beta, Week 4): 0.28
d (Cohen's d, prediction of agomelatine outcome) (Higuchi Fractal Dimension, lower gamma, Week 1): 0.64
d (Cohen's d, prediction of agomelatine outcome) (Higuchi Fractal Dimension, lower gamma, Week 2): 0.58
d (Cohen's d, prediction of agomelatine outcome) (Higuchi Fractal Dimension, lower gamma, Week 4): 0.57
d (Cohen's d, prediction of agomelatine outcome) (Higuchi Fractal Dimension, upper beta, Week 1): −0.29
d (Cohen's d, prediction of agomelatine outcome) (Higuchi Fractal Dimension, upper beta, Week 2): −0.20
d (Cohen's d, prediction of agomelatine outcome) (Higuchi Fractal Dimension, upper beta, Week 4): −0.05
d (Cohen's d, prediction of agomelatine outcome) (Higuchi Fractal Dimension, upper gamma, Week 1): 0.16
d (Cohen's d, prediction of agomelatine outcome) (Higuchi Fractal Dimension, upper gamma, Week 2): 0.16
d (Cohen's d, prediction of agomelatine outcome) (Higuchi Fractal Dimension, upper gamma, Week 4): 0.21
d (Cohen's d, prediction of agomelatine outcome) (Katz Fractal Dimension, lower beta, Week 1): 0.47
d (Cohen's d, prediction of agomelatine outcome) (Katz Fractal Dimension, lower beta, Week 2): 0.42
d (Cohen's d, prediction of agomelatine outcome) (Katz Fractal Dimension, lower beta, Week 4): 0.37
d (Cohen's d, prediction of agomelatine outcome) (Katz Fractal Dimension, lower gamma, Week 1): 0.25
d (Cohen's d, prediction of agomelatine outcome) (Katz Fractal Dimension, lower gamma, Week 2): 0.23
d (Cohen's d, prediction of agomelatine outcome) (Katz Fractal Dimension, lower gamma, Week 4): 0.23
d (Cohen's d, prediction of agomelatine outcome) (Katz Fractal Dimension, upper beta, Week 1): 0.42
d (Cohen's d, prediction of agomelatine outcome) (Katz Fractal Dimension, upper beta, Week 2): 0.40
d (Cohen's d, prediction of agomelatine outcome) (Katz Fractal Dimension, upper beta, Week 4): 0.42
d (Cohen's d, prediction of agomelatine outcome) (Katz Fractal Dimension, upper gamma, Week 1): 0.04
d (Cohen's d, prediction of agomelatine outcome) (Katz Fractal Dimension, upper gamma, Week 2): 0.10
d (Cohen's d, prediction of agomelatine outcome) (Katz Fractal Dimension, upper gamma, Week 4): 0.23
d (Cohen's d, prediction of agomelatine outcome) (Largest Lyapunov Exponent, upper alpha, Week 1): 0.10
d (Cohen's d, prediction of agomelatine outcome) (Largest Lyapunov Exponent, upper alpha, Week 2): 0.12
d (Cohen's d, prediction of agomelatine outcome) (Largest Lyapunov Exponent, upper alpha, Week 4): 0.18
d (Cohen's d, prediction of agomelatine outcome) (Largest Lyapunov Exponent, upper gamma, Week 1): −0.02
d (Cohen's d, prediction of agomelatine outcome) (Largest Lyapunov Exponent, upper gamma, Week 2): 0.08
d (Cohen's d, prediction of agomelatine outcome) (Largest Lyapunov Exponent, upper gamma, Week 4): 0.29
d (Cohen's d, prediction of agomelatine outcome) (Lempel-Ziv Complexity, lower gamma, Week 1): −0.06
d (Cohen's d, prediction of agomelatine outcome) (Lempel-Ziv Complexity, lower gamma, Week 2): 0.01
d (Cohen's d, prediction of agomelatine outcome) (Lempel-Ziv Complexity, lower gamma, Week 4): 0.15
d (Cohen's d, prediction of agomelatine outcome) (Lempel-Ziv Complexity, upper alpha, Week 1): 0.21
d (Cohen's d, prediction of agomelatine outcome) (Lempel-Ziv Complexity, upper alpha, Week 2): 0.17
d (Cohen's d, prediction of agomelatine outcome) (Lempel-Ziv Complexity, upper alpha, Week 4): 0.13
d (Cohen's d, prediction of agomelatine outcome) (Modified Multiscale Entropy, lower alpha, Week 1): 0.08
d (Cohen's d, prediction of agomelatine outcome) (Modified Multiscale Entropy, lower alpha, Week 2): 0.11
d (Cohen's d, prediction of agomelatine outcome) (Modified Multiscale Entropy, lower alpha, Week 4): 0.19
d (Cohen's d, prediction of agomelatine outcome) (Modified Multiscale Entropy, lower gamma, Week 1): −0.09
